Measurements as given in patent US20240374570A1, “DRIVING AXON REGENERATION BY NRF2 OVEREXPRESSION AND EDARAVONE APPLICATION” (The Hong Kong University of Science and Technology, priority 2023, published 2024).

System: dorsal root ganglion (DRG) neurons
Assay: DRG neurons replating culture, axon growth
Type: cell-based, mice
Details: one day treatment, then replated 20 hours under continued treatment, vs DMSO vehicle
Description: FIGS. 3A-3B Edaravone promotes axon elongation in DRG replating culture. (FIG. 3A) Representative image of replated DRG neurons treated by the DMSO vehicle control and indicated concentration of edaravone. Scale bar: 400 μm. (FIG. 3B) Quantification of the longest neuron length of the tested concentrations of edaravone. Dots represent the measurement of each neuron.
Primary culture and replating culture of DRG neurons were performed as following protocols. L3-L5 dorsal root ganglia (DRGs) were dissected from adult WT mice and digested in 0.5% collagenase for 90 minutes. Subsequently, the digestion medium was replaced with culture medium (Neurobasal-A supplemented with penicillin-streptomycin and B-27). The digested DRGs were then triturated with a pipette 20-30 times to isolate DRG neurons. The isolated DRG neurons were plated onto a 6-well plate pre-coated with Poly-D-Lysine and laminin. Primary cultured DRG neurons received 1 μM edaravone, 10 μM edaravone or DMSO vehicle treatment for one day. After then, neurons were resuspended and replated to another dish under continue treatment of vehicle/edaravone. The replating culture was terminated with 4% PFA after 20 hours. Tuj1 staining was performed to visualize DRG cell bodies and neurites.
Adult mice dorsal root ganglion (DRG) neurons replating culture was used to investigate the effect of edaravone on axon growth. […]

SMILES: CC1=NN(c2ccccc2)C(=O)C1 [edaravone, 5-methyl-2-phenyl-2,4-dihydro-3H-pyrazol-3-one]
- axon (neurite) growth, longest neuron length (1 μM): significant growth-promoting effect
- axon (neurite) growth, longest neuron length (10 μM): significant growth-promoting effect
